d = 2'-deoxy (DNA); m = 2'-O-methyl
Legend:
[1] = system: CTIP; assay: Western blot of kidney protein expression in cisplatin-treated mice: CTIP; format: in vivo, mouse; details: cisplatin 15 mg/kg, 3 days after treatment
Method: (§1) Ten-week-old wild-type C57BL/6J mice weighing 25-28 g were purchased from the Jackson Laboratory. […] An identical volume of saline (0.9% NaCl) was administered intraperitoneally to control mice.
(§2) Total protein samples were isolated with RIPA buffer, fractionated on 4%-12% Bis-Tris polyacrylamide gels (Thermo Fisher Scientific), and electroblotted onto PVDF membranes (Millipore). Membranes were blocked with 5% nonfat milk and incubated overnight with rabbit anti-APE2 polyclonal antibody (Bioss, #bs-6587R), rabbit anti-APE1 polyclonal antibody (Abnova, #H00000328-D02), mouse anti-LIG3 monoclonal antibody (Santa Cruz Biotechnology, #sc-56089), rabbit anti-MRE11 monoclonal antibody (Cell Signaling Technology, #4847), rabbit anti-CtIP polyclonal antibody (Bethyl Laboratories, #300-488A), or goat anti-β-actin polyclonal antibody (Santa Cruz Biotechnology, #sc-1615) overnight at 4° C. Membranes were then washed and incubated with HRP-linked anti-rabbit IgG secondary antibody (Cell Signaling Technology, #7074) or HRP-linked anti-mouse IgG secondary antibody (Cell Signaling Technology, #7076S). […] Detection by chemiluminescence was carried out by means of a SuperSignal West Femto Maximum Sensitivity Substrate kit (Thermo Fisher Scientific) with β-actin as a loading control.

[2] = system: APE2; assay: Immunofluorescence of APE2 subcellular localization in primary mouse PTCs after cisplatin; format: cell-based; details: primary mouse PTCs treated with cisplatin
Method: (§3) HEK293T and HK2 cells were purchased from the ATCC. Mouse anti-Prominin-1 MicroBeads (130-092-333, Miltenyi Biotec) were used to isolate PTCs from APE2LSL/− CreERT2+/− mice, Cre-ERT2+/− mice, C57B6 mice, and APE2 KO mice. The primary PTCs were cultured in DMEM/Nutrient Mixture F-12 (DMEM/F12) containing 10% FBS, 100 U/mL penicillin, and 100 μg/mL streptomycin. HEK293T and HK2 cells were routinely genotyped using the Human Cell Line Genotyping System (Promega) and were used within their 6 times passage. Mouse PTCs were genotyped using the primer for transgenic mice and were used within their 3 times passage. All cell lines were used Mycoplasma tested negative.
(§4) Immunofluorescence staining was performed as described previously (20). The slides of HK2 cells were incubated sequentially with rabbit anti-APE2 antibody (GeneTex), goat anti-rabbit Alexa Fluor 488-conjugated secondary antibody (Abcam), mouse anti-MYH9 antibody (GeneTex), goat anti-mouse Alexa Fluor 647-conjugated secondary antibody (Abcam), and rabbit anti-COXIV antibody Alexa Fluor […]-conjugated antibody (Santa Cruz Biotechnology). […]

[3] = system: wild-type (WT) and APE2 KO mice; details: mouse, in vivo, 15 mg/kg
Method: as §1
(§5) APE2 conditional transgenic mice were generated by inserting a transcription-translation STOP cassette flanked by LoxP sites (LSL) at the start of the APE2 locus. An FRT-mediated recombination ColA1 3′ untranslated region locus was used first to generate APE2LSL mice. The STOP cassette prevents expression of the APE2 gene. To remove the STOP cassette and activate APE2 expression in vivo, the APE2LSL mice were mated with Rosa26-Cre-Estrogen Receptor-T2 (CreERT2+/−) mice (18; #8463, The Jackson Laboratory), in which the ERT moiety retains Cre recombinase activity in the cytoplasm until tamoxifen administration releases this block and promotes recombination of genomic LoxP sites. Three-week-old APE2LSL/+CreERT2+/− mice and CreERT2+/− mice were injected intraperitoneally with 10 mg/kg 4-OH-tamoxifen for 3 consecutive days. Creatinine and EPO were measured using mouse creatinine (Crystal Chem) and EPO (R&D Systems) ELISA kits. We used heterozygous male (APE2−/Y) mice (12) bearing a mutated APE2 allele on the X chromosome, in which a genomic region from the 3′-region of its intron 5 to the 5′-region in exon 6 was replaced by a neo cassette by crossing heterozygous APE2 female (APE2−/+) mice with wild-type C57BL/6 mice. […] Using this breeding strategy, there is the potential risk and uncertainty of interference with the germline DNA in the male and female APE2 knockout progeny because APE2 has already been knocked out in the male parent (APE2−/Y) and because the function of APE2 is to be responsible for DNA damage repair (13). All mice were of C57B6 genetic background. All experiments involving animals were pre-approved by the Cleveland Clinic IACUC (Institutional Animal Care and Use Committee).
(§6) Mouse kidney biopsy specimens were submerged in 2.5% EM grade glutaraldehyde in 2.5% glutaraldehyde/4% paraformaldehyde in 0.2 mol/L sodium cacodylate buffer (pH 7.4) at 4° C. immediately after sectioning and fixed at 4° C. overnight. After washing three times for 5 minutes in sodium cacodylate buffer (0.2 mol/L, pH 7.3), kidney fragments were fixed in 1% aqueous osmium tetroxide for 60 minutes at 4° C., then washed twice for 5 minutes with sodium cacodylate buffer and rinsed once with maleate buffer (pH 5.1, 5 minutes). After changing to 1% uranyl acetate in maleate buffer, the samples were stained for 60 minutes; the uranyl acetate was removed. The samples were then washed three times for 5 minutes with maleate buffer and then dehydrated with ascending grades of ethanol, and finally embedded in Epon resin (Electron Microscopy Science). […]

[4] = system: LIG3; assay: Western blot of kidney protein expression in cisplatin-treated mice: LIG3; format: in vivo, mouse; details: cisplatin 15 mg/kg, 3 days after treatment
Method: as §1, §2

[5] = system: MRE11; assay: Western blot of kidney protein expression in cisplatin-treated mice: MRE11; format: in vivo, mouse; details: cisplatin 15 mg/kg, 3 days after treatment
Method: as §1, §2

[6] = system: APE1; assay: Western blot of kidney protein expression in cisplatin-treated mice: APE1; format: in vivo, mouse; details: cisplatin 15 mg/kg, 3 days after treatment
Method: as §1, §2

[7] = system: PCNA; assay: Western blot of kidney protein expression in cisplatin-treated mice: PCNA; format: in vivo, mouse; details: cisplatin 15 mg/kg, 3 days after treatment
[8] = within 24 hours of administration; cited from earlier work
[9] = system: primary PTCs; assay: Oxygen consumption (Seahorse Cell Mito Stress) of PTCs from cisplatin-treated mice; format: cell-based, mouse; details: PTCs of cisplatin-treated APE2 KO mice versus WT
Method: as §3
The functional activity of PTC mitochondria was measured by using a Seahorse XF24 Analyzer and a Seahorse XF Cell Mito Stress Test Assay (Agilent Technologies). Mitochondrial functionality was examined by direct measurement of the OCR of cells according to the manufacturer's instructions. Briefly, 8×10^4 PTCs were seeded into 24-well plates and allowed to attach overnight. The cells were subjected to OCR detection by sequential injections of oligomycin, carbonyl cyanide p-trifluoromethoxyphenylhydrazone (FCCP), and a combination of rotenone and antimycin A. Basal OCR=measured OCR level before the injection of oligomycin. Adenosine triphosphate (ATP) synthesis-linked OCR (ATP-linked)=basal OCR−OCR following oligomycin injection. […]

[10] = system: APE2; assay: Immunofluorescence of APE2 subcellular localization in HK2 cells after cisplatin; format: cell-based, human; details: HK2 cells treated with cisplatin
Method: as §3, §4

[11] = system: APE2; assay: Western blot of kidney protein expression in platinum drug-treated mice: APE2; format: in vivo, mouse; details: for APE2 expression in kidney cells: 40 mg/kg single intraperitoneal dose
Method: as §1, §2

[12] = system: APE2; assay: IHC staining for APE2 in kidney biopsies of C-AKI patients; format: in vivo, human; details: two patients with C-AKI versus normal kidney biopsies
Method: Kidney specimens were obtained from healthy donors and from cisplatin-induced AKI patients in accordance with Cleveland Clinic Foundation Institutional Review Board approval requirements, and written informed consent was obtained in compliance with the Helsinki. Formalin-fixed paraffin-embedded tissue sections were de-paraffinized and then incubated with rabbit anti-APE2 polyclonal antibody (Bioss, bs-6587R), rabbit anti-cleaved caspase-3monoclonal antibody (Cell Signaling Technology, #9664S), rabbit anti-MYH9 antibody (GeneTex GTX113236), or rabbit anti-phosphor-histone H2A.X(Ser139) polyclonal antibody (Cell Signaling Technology, #2577) at 4° C. overnight. After incubation with horseradish peroxidase (HRP)-conjugated goat anti-rabbit secondary antibody, signal was detected using a DAB Substrate kit (Abcam, ab64238) according the manufacturer's instructions. Images were obtained by means of a phase-contrast microscope (Leica DM2000 LED) and a digital camera (Leica DMC 2900).

[13] = system: CreERT2+/−, APE2LSL/− mice; assay: APE2-ASO treatment of transgenic CreERT2+/−, APE2LSL/− mice (APE2 AKI mouse model); format: in vivo; details: for kidney function: treated 4 weeks, once per week
Description: as §5, §6

[14] = system: APE2; assay: PK/PD study in C57B6 mice, APE2 expression by western blot; format: in vivo, mouse
Method: Further optimization of the ASO drug. Potential ASO toxicities fall into two categories: (i) hybridization-dependent toxicities due to on- or off-target events, and (ii) hybridization-independent toxicities, such as excessive immunostimulation due to non-antisense effects of the ASO. We performed the PK/PD study using C57B6 mice. We IP injected six weeks old male mice with 20 mg/kg APE2-ASO and checked the APE2 expression by western blot analysis. We found the APE2 could be knock down in two days and restored in 4 days after injection (FIG. 9).

[15] = 20 mg/kg IP, six weeks old male C57B6 mice

With `N.N.[Cl][Pt][Cl]` [cisplatin] the “CTIP expression in kidney” value [1] was “slightly upregulated”, the APE2 subcellular localization [2] was “enriched in the cytoplasm, especially within mitochondria” and the kidney damage [3] was “only minor kidney damage”. For the same molecule, the kidney weight [3] was “decreased kidney weight”, the “mitochondrial fragmentation (EM)” value [3] was “less mitochondrial fragmentation” and the renal damage [3] was “most severe”. The “LIG3 expression in kidney” value [4] was “slightly upregulated”, the “MRE11 expression in kidney” value [5] was “slightly upregulated” and the “APE1 expression in kidney” value [6] was “slightly upregulated”. For the same molecule, the “PCNA expression in kidney” value [7] was “downregulated”, the “cisplatin excreted via the urine” value [8] was 50%-80% and the “OCR in PTCs” value [9] was “significantly increased”. For the same molecule, the APE2 subcellular localization [10] was “enriched in the cytoplasm, especially within mitochondria”, the “APE2 expression in kidney” value ([11]; cisplatin 15 mg/kg single intraperitoneal dose, kidney collected 3 days after treatment) was “the most highly upregulated protein” and the “APE2 protein in PTCs by IHC” value [12] was “dramatically upregulated”.
With `O=C1[O][Pt]2([NH][C@@H]3CCCC[C@H]3[NH]2)[O]C1=O` [oxaliplatin] the “APE2 expression in kidney cells” value [11] was “slight upregulation”.
For `N.N.O=C([O-])C1(C(=O)[O-])CCC1.[Pt+2]` [carboplatin], the “APE2 expression in kidney cells” value [11] was “slight upregulation”.
With “mU*mG*mU*C*C*T*T*A*C*A*G*A*A*mG*mG*mU (UGUCCTTACAGAAGGU; sugars from the 5' end m3 d10 m3, all phosphorothioate, methylation of C not given here) [APE2-ASO-3]” the plasma creatine level ([13]; compared with saline treated controls, P<0.01) was “significantly reduced”, the “mitochondrial morphology (EM)” value ([13]; compared with vehicle treated mice, age of eight weeks) was “remained relatively normal” and the kidney function [13] was “protected”. For the same molecule, the kidney function ([13]; listed as APE2-ASO gapmer drug) was “protected kidney function”, the “time to APE2 knock down after injection” value [14, 15] was “two” and the “time to restored APE2 expression after injection” value [14, 15] was 4 days. The APE2 level ([14]; wild type C57B6 mice) was “knock down”.
